Results: publication PMC9817970 (Cancers, 2022)

Legend:
Assay in all cases: Kinase panel profiling
Assay type in all cases: biochemical
Details in all cases: 10 μM ATP
AKT1 = target: T1, AKT1 (Homo sapiens, UniProt P31749)
T1 construct: purchased Reaction Biology Corp
Experimental: (§1) Kinase panel profiling was conducted by Reaction Biology Corp. (San Diego, CA, USA). A single dose (1.0 μM) of 6r was tested against 371 recombinant human kinases in the presence of 10 μM ATP.

AURORA B = target: T2, AURORA B (Homo sapiens, UniProt Q96GD4)
T2 construct: purchased Reaction Biology Corp
Experimental: as §1

Aurora A = target: T3, Aurora A (Homo sapiens, UniProt O14965)
T3 construct: purchased Reaction Biology Corp
Experimental: as §1

BMX/ETK = target: T4, BMX/ETK (Homo sapiens, UniProt P51813)
T4 construct: purchased Reaction Biology Corp
Experimental: as §1

BTK = target: T5, BTK (Homo sapiens, UniProt Q06187)
T5 construct: purchased Reaction Biology Corp
Experimental: as §1

CDK1/cyclin E = target: T6, CDK1/cyclin E (Homo sapiens, UniProt P06493)
T6 construct: purchased Reaction Biology Corp
Experimental: as §1

CHK2 = target: T7, CHK2 (Homo sapiens, UniProt O96017)
T7 construct: purchased Reaction Biology Corp
Experimental: as §1

CK1a1 = target: T8, CK1a1 (Homo sapiens, UniProt P48729)
T8 construct: purchased Reaction Biology Corp
Experimental: as §1

CK1g1 = target: T9, CK1g1 (Homo sapiens, UniProt Q9HCP0)
T9 construct: purchased Reaction Biology Corp
Experimental: as §1

CK2a2 = target: T10, CK2a2 (Homo sapiens, UniProt P19784)
T10 construct: purchased Reaction Biology Corp
T10 sequence (P19784 whole entry): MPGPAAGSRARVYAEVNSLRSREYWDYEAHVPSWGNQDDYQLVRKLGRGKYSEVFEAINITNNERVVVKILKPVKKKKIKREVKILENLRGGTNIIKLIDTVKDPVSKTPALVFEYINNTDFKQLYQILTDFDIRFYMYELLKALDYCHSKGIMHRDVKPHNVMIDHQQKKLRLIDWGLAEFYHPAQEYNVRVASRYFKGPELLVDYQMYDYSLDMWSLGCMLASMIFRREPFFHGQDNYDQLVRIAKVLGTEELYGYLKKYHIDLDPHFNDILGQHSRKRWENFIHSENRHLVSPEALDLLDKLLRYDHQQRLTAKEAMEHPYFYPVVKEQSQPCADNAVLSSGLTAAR
Experimental: as §1

CTK/MATK = target: T11, CTK/MATK (Homo sapiens, UniProt P42679)
T11 construct: purchased Reaction Biology Corp
T11 sequence (P42679 whole entry): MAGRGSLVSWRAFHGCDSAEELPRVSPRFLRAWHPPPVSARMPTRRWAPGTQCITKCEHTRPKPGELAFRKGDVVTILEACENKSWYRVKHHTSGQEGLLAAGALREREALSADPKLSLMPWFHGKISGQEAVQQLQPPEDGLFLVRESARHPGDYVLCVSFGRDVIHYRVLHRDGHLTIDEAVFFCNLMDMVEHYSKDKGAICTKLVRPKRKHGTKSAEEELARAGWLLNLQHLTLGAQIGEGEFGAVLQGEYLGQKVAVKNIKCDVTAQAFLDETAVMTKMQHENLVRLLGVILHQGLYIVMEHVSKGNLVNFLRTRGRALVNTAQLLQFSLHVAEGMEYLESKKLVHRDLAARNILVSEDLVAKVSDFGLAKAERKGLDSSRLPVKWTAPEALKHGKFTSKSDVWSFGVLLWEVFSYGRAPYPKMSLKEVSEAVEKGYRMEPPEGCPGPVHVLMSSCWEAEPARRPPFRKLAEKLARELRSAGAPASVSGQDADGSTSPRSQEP
Experimental: as §1

DAPK1 = target: T12, DAPK1 (Homo sapiens, UniProt P53355)
T12 construct: purchased Reaction Biology Corp
T12 sequence (P53355 whole entry): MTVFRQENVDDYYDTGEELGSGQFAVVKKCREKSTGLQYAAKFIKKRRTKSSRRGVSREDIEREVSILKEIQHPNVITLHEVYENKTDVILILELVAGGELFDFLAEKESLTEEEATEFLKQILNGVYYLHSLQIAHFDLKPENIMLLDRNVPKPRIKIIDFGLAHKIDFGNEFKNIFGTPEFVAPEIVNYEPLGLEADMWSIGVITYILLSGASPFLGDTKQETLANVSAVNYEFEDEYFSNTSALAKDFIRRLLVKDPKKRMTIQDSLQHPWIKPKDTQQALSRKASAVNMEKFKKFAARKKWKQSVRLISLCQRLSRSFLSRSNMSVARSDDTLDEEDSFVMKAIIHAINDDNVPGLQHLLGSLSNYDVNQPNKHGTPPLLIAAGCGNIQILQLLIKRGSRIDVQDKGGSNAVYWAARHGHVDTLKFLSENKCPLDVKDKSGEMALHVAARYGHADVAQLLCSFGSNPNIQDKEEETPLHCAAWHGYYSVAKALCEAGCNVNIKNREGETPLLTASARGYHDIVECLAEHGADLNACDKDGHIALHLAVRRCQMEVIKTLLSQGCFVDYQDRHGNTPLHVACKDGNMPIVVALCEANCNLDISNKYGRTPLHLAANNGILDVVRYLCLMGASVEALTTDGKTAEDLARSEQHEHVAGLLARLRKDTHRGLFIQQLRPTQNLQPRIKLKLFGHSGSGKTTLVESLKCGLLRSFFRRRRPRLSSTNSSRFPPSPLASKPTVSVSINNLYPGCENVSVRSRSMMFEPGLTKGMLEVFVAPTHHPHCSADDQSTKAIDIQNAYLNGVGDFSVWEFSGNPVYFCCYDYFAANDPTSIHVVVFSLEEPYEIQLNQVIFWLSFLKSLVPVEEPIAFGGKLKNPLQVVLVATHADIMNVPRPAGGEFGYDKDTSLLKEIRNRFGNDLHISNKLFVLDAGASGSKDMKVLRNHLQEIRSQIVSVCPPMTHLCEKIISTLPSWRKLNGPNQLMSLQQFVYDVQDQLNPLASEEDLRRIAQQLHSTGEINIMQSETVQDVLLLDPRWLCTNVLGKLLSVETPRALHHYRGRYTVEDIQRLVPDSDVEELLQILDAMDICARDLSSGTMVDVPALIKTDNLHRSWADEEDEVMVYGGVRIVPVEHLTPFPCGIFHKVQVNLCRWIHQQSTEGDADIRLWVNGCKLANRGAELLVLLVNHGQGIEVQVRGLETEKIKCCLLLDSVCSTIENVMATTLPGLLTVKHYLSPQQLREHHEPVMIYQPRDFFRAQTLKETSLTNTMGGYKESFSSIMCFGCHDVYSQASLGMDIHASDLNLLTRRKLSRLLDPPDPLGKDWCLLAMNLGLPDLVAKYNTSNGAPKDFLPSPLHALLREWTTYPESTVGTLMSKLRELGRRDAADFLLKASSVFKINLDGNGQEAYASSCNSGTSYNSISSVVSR
Experimental: as §1

DAPK2 = target: T13, DAPK2 (Homo sapiens, UniProt Q9UIK4)
T13 construct: purchased Reaction Biology Corp
Experimental: as §1

DCAMKL2 = target: T14, DCAMKL2 (Homo sapiens, UniProt Q8N568)
T14 construct: purchased Reaction Biology Corp
Experimental: as §1

DDR1 = target: T15, DDR1 (Homo sapiens, UniProt Q08345)
T15 construct: purchased Reaction Biology Corp
Experimental: as §1

DRAK1/STK17A = target: T16, DRAK1/STK17A (Homo sapiens, UniProt Q9UEE5)
T16 construct: purchased Reaction Biology Corp
T16 sequence (Q9UEE5 whole entry): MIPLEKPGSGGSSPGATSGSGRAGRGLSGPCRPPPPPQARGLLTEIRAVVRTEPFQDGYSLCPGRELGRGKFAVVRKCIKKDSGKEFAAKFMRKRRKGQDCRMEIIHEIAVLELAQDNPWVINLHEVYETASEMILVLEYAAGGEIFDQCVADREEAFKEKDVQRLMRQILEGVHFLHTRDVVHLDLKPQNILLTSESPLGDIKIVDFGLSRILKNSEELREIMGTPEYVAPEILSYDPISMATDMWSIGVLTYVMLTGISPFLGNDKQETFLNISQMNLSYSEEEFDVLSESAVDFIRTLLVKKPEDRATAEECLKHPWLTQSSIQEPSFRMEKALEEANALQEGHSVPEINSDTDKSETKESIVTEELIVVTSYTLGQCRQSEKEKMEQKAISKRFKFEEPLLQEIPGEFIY
Experimental: as §1

EPHA4 = target: T17, EPHA4 (Homo sapiens, UniProt P54764)
T17 construct: purchased Reaction Biology Corp
Experimental: as §1

EPHB2 = target: T18, EPHB2 (Homo sapiens, UniProt P29323)
T18 construct: purchased Reaction Biology Corp
Experimental: as §1

FGFR1 = target: T19, FGFR1 (Homo sapiens, UniProt P11362)
T19 construct: purchased Reaction Biology Corp
Experimental: as §1

FLT1/VEGFR1 = target: T20, FLT1/VEGFR1 (Homo sapiens, UniProt P17948)
T20 construct: purchased Reaction Biology Corp
Experimental: as §1

GRK2 = target: T21, GRK2 (Homo sapiens, UniProt P25098)
T21 construct: purchased Reaction Biology Corp
Experimental: as §1

GRK4 = target: T22, GRK4 (Homo sapiens, UniProt P32298)
T22 construct: purchased Reaction Biology Corp
Experimental: as §1

GRK6 = target: T23, GRK6 (Homo sapiens, UniProt P43250)
T23 construct: purchased Reaction Biology Corp
Experimental: as §1

HIPK1 = target: T24, HIPK1 (Homo sapiens, UniProt Q86Z02)
T24 construct: purchased Reaction Biology Corp
Experimental: as §1

HIPK4 = target: T25, HIPK4 (Homo sapiens, UniProt Q8NE63)
T25 construct: purchased Reaction Biology Corp
Experimental: as §1

JAK3 = target: T26, JAK3 (Homo sapiens, UniProt P52333)
T26 construct: purchased Reaction Biology Corp
Experimental: as §1

KHS/MAP4K5 = target: T27, KHS/MAP4K5 (Homo sapiens, UniProt Q9Y4K4)
T27 construct: purchased Reaction Biology Corp
T27 sequence (Q9Y4K4 whole entry): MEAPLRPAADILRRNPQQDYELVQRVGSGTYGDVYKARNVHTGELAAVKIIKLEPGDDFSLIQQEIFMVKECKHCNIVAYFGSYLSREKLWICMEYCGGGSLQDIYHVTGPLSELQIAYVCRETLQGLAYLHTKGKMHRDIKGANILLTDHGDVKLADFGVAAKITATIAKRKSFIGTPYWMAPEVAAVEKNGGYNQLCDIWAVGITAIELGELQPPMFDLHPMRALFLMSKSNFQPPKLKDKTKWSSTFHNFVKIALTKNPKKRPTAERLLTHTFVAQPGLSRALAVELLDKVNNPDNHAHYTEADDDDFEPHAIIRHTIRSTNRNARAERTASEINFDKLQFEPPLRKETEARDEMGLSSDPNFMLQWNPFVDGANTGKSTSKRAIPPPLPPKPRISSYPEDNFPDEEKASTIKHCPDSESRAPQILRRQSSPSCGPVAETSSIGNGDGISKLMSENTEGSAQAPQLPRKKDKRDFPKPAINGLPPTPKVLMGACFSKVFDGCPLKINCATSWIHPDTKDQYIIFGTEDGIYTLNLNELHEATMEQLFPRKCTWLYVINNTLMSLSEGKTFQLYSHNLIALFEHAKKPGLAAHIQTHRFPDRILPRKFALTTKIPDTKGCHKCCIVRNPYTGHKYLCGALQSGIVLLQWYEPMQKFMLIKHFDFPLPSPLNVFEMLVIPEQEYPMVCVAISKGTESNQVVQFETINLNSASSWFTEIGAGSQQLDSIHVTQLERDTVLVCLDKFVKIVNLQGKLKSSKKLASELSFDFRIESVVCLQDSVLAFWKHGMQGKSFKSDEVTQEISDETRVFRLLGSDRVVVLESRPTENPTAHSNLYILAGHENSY
Experimental: as §1

KSR1 = target: T28, KSR1 (Homo sapiens, UniProt Q8IVT5)
T28 construct: purchased Reaction Biology Corp
Experimental: as §1

MAST3 = target: T29, MAST3 (Homo sapiens, UniProt O60307)
T29 construct: purchased Reaction Biology Corp
Experimental: as §1

MLCK/MYLK = target: T30, MLCK/MYLK (Homo sapiens, UniProt Q15746)
T30 construct: purchased Reaction Biology Corp
Experimental: as §1

MLK4 = target: T31, MLK4 (Homo sapiens, UniProt Q5TCX8)
T31 construct: purchased Reaction Biology Corp
Experimental: as §1

PDGFRa = target: T32, PDGFRa (Homo sapiens, UniProt P16234)
T32 construct: purchased Reaction Biology Corp
T32 sequence (P16234 24-1089): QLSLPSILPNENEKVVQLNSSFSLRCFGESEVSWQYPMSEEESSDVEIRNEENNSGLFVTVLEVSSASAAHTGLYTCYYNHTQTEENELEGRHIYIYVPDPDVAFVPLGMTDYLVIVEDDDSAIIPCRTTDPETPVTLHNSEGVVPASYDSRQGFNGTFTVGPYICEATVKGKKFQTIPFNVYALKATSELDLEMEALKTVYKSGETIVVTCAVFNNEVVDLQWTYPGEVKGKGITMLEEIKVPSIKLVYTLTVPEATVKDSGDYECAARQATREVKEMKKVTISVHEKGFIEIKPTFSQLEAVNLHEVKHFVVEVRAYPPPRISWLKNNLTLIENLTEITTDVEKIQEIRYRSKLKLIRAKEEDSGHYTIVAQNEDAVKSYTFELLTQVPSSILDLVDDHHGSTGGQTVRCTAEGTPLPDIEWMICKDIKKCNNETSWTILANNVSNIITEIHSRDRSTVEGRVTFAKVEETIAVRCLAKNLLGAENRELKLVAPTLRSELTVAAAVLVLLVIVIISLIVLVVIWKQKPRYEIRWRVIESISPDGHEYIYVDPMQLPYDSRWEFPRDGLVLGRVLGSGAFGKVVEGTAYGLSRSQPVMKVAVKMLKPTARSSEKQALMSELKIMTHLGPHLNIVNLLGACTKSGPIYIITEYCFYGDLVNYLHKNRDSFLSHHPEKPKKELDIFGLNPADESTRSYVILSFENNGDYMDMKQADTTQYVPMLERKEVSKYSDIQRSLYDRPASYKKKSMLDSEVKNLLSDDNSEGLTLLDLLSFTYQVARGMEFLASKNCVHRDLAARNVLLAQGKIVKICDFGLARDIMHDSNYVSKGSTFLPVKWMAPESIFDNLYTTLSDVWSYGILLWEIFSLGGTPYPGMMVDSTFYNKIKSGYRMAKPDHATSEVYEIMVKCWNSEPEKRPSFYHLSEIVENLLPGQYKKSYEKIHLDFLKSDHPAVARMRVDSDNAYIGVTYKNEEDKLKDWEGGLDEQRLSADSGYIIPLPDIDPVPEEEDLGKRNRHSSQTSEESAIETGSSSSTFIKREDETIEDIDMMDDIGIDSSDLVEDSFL
Experimental: as §1

PIM1 = target: T33, PIM1 (Homo sapiens, UniProt P11309)
T33 construct: purchased Reaction Biology Corp
Experimental: as §1

PKCepsilon = target: T34, PKCepsilon (Homo sapiens, UniProt Q02156)
T34 construct: purchased Reaction Biology Corp
Experimental: as §1

PKCnu/PRKD3 = target: T35, PKCnu/PRKD3 (Homo sapiens, UniProt O94806)
T35 construct: purchased Reaction Biology Corp
Experimental: as §1

PKCtheta = target: T36, PKCtheta (Homo sapiens, UniProt Q04759)
T36 construct: purchased Reaction Biology Corp
Experimental: as §1

SBK1 = target: T37, SBK1 (Homo sapiens, UniProt Q52WX2)
T37 construct: purchased Reaction Biology Corp
Experimental: as §1

SGK1 = target: T38, SGK1 (Homo sapiens, UniProt O00141)
T38 construct: purchased Reaction Biology Corp
Experimental: as §1

SGK2 = target: T39, SGK2 (Homo sapiens, UniProt Q9HBY8)
T39 construct: purchased Reaction Biology Corp
T39 sequence (Q9HBY8 whole entry): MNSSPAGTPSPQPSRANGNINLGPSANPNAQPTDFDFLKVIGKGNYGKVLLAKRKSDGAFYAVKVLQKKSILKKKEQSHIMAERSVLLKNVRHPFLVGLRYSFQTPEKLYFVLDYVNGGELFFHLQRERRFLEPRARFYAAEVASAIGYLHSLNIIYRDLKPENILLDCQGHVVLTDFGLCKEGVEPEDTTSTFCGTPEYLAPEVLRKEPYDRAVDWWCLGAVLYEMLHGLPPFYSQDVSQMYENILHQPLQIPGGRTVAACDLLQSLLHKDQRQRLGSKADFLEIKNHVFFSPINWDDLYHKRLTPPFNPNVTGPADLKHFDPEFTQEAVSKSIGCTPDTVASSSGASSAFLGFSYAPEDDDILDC
Experimental: as §1

STK21/CIT = target: T40, STK21/CIT (Homo sapiens, UniProt O14578)
T40 construct: purchased Reaction Biology Corp
Experimental: as §1

TLK1 = target: T41, TLK1 (Homo sapiens, UniProt Q9UKI8)
T41 construct: purchased Reaction Biology Corp
Experimental: as §1

TTBK2 = target: T42, TTBK2 (Homo sapiens, UniProt Q6IQ55)
T42 construct: purchased Reaction Biology Corp
Experimental: as §1

TYK1/LTK = target: T43, TYK1/LTK (Homo sapiens, UniProt P29376)
T43 construct: purchased Reaction Biology Corp
Experimental: as §1

Q: For `Cc1ccc(NC(=O)c2ccc(CN3CCN(C)CC3)c(C(F)(F)F)c2)cc1-c1cnc2sc(N)nc2c1` [6r], which inhibition at 1 µM (AKT1) is on record?
A: 0%

Q: What about the inhibition at 1 µM (AURORA B) of the same compound?
A: 0%

Q: And the inhibition at 1 µM (Aurora A)?
A: 0%

Q: And the inhibition at 1 µM (BMX/ETK)?
A: 31.5%

Q: And the inhibition at 1 µM (BTK)?
A: 4.7%

Q: What about the inhibition at 1 µM (CDK1/cyclin E) of the same compound?
A: 0%

Q: And the inhibition at 1 µM (CHK2)?
A: 4.8%

Q: What about the inhibition at 1 µM (CK1a1) of the same compound?
A: 13.7%

Q: What about the inhibition at 1 µM (CK1g1) of the same compound?
A: 50.5%

Q: What about the inhibition at 1 µM (CK2a2) of the same compound?
A: 1%

Q: And the inhibition at 1 µM (CTK/MATK)?
A: 8.1%

Q: And the inhibition at 1 µM (DAPK1)?
A: 10.1%

Q: And the inhibition at 1 µM (DAPK2)?
A: 0.3%

Q: What about the inhibition at 1 µM (DCAMKL2) of the same compound?
A: 0%

Q: What about the inhibition at 1 µM (DDR1) of the same compound?
A: 99.9%

Q: And the inhibition at 1 µM (DRAK1/STK17A)?
A: 0%

Q: And the inhibition at 1 µM (EPHA4)?
A: 64.7%

Q: What about the inhibition at 1 µM (EPHB2) of the same compound?
A: 38.9%

Q: And the inhibition at 1 µM (FGFR1)?
A: 20.7%

Q: And the inhibition at 1 µM (FLT1/VEGFR1)?
A: 63.7%

Q: And the inhibition at 1 µM (GRK2)?
A: 0%

Q: What about the inhibition at 1 µM (GRK4) of the same compound?
A: 0%

Q: And the inhibition at 1 µM (GRK6)?
A: 0%

Q: What about the inhibition at 1 µM (HIPK1) of the same compound?
A: 5.2%

Q: And the inhibition at 1 µM (HIPK4)?
A: 8.7%

Q: What about the inhibition at 1 µM (JAK3) of the same compound?
A: 7.8%

Q: What about the inhibition at 1 µM (KHS/MAP4K5) of the same compound?
A: 0%

Q: What about the inhibition at 1 µM (KSR1) of the same compound?
A: 5.5%

Q: And the inhibition at 1 µM (MAST3)?
A: 0%

Q: What about the inhibition at 1 µM (MLCK/MYLK) of the same compound?
A: 11%

Q: And the inhibition at 1 µM (MLK4)?
A: 6.5%

Q: What about the inhibition at 1 µM (PDGFRa) of the same compound?
A: 96.7%

Q: What about the inhibition at 1 µM (PIM1) of the same compound?
A: 13.6%

Q: What about the inhibition at 1 µM (PKCepsilon) of the same compound?
A: 0%

Q: What about the inhibition at 1 µM (PKCnu/PRKD3) of the same compound?
A: 23.8%

Q: And the inhibition at 1 µM (PKCtheta)?
A: 6.9%

Q: And the inhibition at 1 µM (SBK1)?
A: 6.7%

Q: And the inhibition at 1 µM (SGK1)?
A: 11.6%

Q: And the inhibition at 1 µM (SGK2)?
A: 3.8%

Q: And the inhibition at 1 µM (STK21/CIT)?
A: 5.6%

Q: And the inhibition at 1 µM (TLK1)?
A: 0%

Q: And the inhibition at 1 µM (TTBK2)?
A: 23.2%

Q: And the inhibition at 1 µM (TYK1/LTK)?
A: 1%
